Test results taken from BigSolDB 2.1.

In the case of `Cl.N=C(N)Nc1ccc(C(=O)O)cc1`, the solubility (mole fraction) (in ethanol, 294.95 K) is reported as 0.00291, the solubility (mole fraction) (in ethanol, 300.05 K) is reported as 0.00316 and the solubility (mole fraction) (in ethanol, 305.95 K) is reported as 0.00343. The solubility (mole fraction) (in ethanol, 310.25 K) was 0.00387, the solubility (mole fraction) (in ethanol, 315.25 K) was 0.0042 and the solubility (mole fraction) (in ethanol, 320.25 K) was 0.00478. The solubility (mole fraction) (in ethanol, 325.55 K) was 0.00514, the solubility (mole fraction) (in ethanol, 330.65 K) was 0.00558 and the solubility (mole fraction) (in isopropanol, 296.35 K) was 0.0008. For the same compound, the solubility (mole fraction) (in isopropanol, 301.75 K) was 0.00106, the solubility (mole fraction) (in isopropanol, 307.55 K) was 0.00127 and the solubility (mole fraction) (in isopropanol, 312.95 K) was 0.00149. It also gave a solubility (mole fraction) (in isopropanol, 317.35 K) of 0.00158, a solubility (mole fraction) (in isopropanol, 321.35 K) of 0.0017 and a solubility (mole fraction) (in isopropanol, 325.15 K) of 0.00186. For the same compound, the solubility (mole fraction) (in isopropanol, 328.25 K) was 0.00201, the solubility (mole fraction) (in methanol, 297.95 K) was 0.0118 and the solubility (mole fraction) (in methanol, 302.45 K) was 0.0128. It also gave a solubility (mole fraction) (in methanol, 307.45 K) of 0.0143, a solubility (mole fraction) (in methanol, 312.95 K) of 0.0155 and a solubility (mole fraction) (in methanol, 317.45 K) of 0.017. It also gave a solubility (mole fraction) (in methanol, 321.25 K) of 0.0181, a solubility (mole fraction) (in methanol, 324.85 K) of 0.0192 and a solubility (mole fraction) (in methanol, 328.55 K) of 0.0203. It also gave a solubility (mole fraction) (in n-butanol, 293.25 K) of 0.00103, a solubility (mole fraction) (in n-butanol, 296.85 K) of 0.00124 and a solubility (mole fraction) (in n-butanol, 300.05 K) of 0.00137. The solubility (mole fraction) (in n-butanol, 303.15 K) was 0.00149, the solubility (mole fraction) (in n-butanol, 307.55 K) was 0.00163 and the solubility (mole fraction) (in n-butanol, 314.75 K) was 0.00182. For the same compound, the solubility (mole fraction) (in n-butanol, 320.15 K) was 0.00194, the solubility (mole fraction) (in n-butanol, 327.15 K) was 0.00216 and the solubility (mole fraction) (in n-pentanol, 292.05 K) was 0.00042. The solubility (mole fraction) (in n-pentanol, 296.55 K) was 0.00071, the solubility (mole fraction) (in n-pentanol, 301.75 K) was 0.0008 and the solubility (mole fraction) (in n-pentanol, 310.05 K) was 0.00096. It also gave a solubility (mole fraction) (in n-pentanol, 316.75 K) of 0.00103, a solubility (mole fraction) (in n-pentanol, 322.95 K) of 0.00114 and a solubility (mole fraction) (in n-pentanol, 327.95 K) of 0.00121. The solubility (mole fraction) (in n-pentanol, 334.15 K) was 0.00136, the solubility (mole fraction) (in n-propanol, 295.05 K) was 0.00368 and the solubility (mole fraction) (in n-propanol, 300.75 K) was 0.00436. For the same compound, the solubility (mole fraction) (in n-propanol, 305.75 K) was 0.00495, the solubility (mole fraction) (in n-propanol, 309.95 K) was 0.00564 and the solubility (mole fraction) (in n-propanol, 314.55 K) was 0.00633. It also gave a solubility (mole fraction) (in n-propanol, 319.35 K) of 0.00716, a solubility (mole fraction) (in n-propanol, 322.85 K) of 0.00753 and a solubility (mole fraction) (in n-propanol, 327.75 K) of 0.00815. It also gave a solubility (mole fraction) (in water, 298.05 K) of 0.00532, a solubility (mole fraction) (in water, 304.55 K) of 0.00685 and a solubility (mole fraction) (in water, 309.95 K) of 0.00884. It also gave a solubility (mole fraction) (in water, 314.85 K) of 0.0108, a solubility (mole fraction) (in water, 318.55 K) of 0.0129 and a solubility (mole fraction) (in water, 323.55 K) of 0.0155. The solubility (mole fraction) (in water, 328.85 K) was 0.018 and the solubility (mole fraction) (in water, 333.65 K) was 0.0218.
